The nature of data set [1]: Caco-2 bidirectional permeability assay. It is filed as in vitro ADME, human. The note with it: human. On the technique in general: Caco-2 cells form a polarised layer with tight junctions and transporters.
For another data set, the system named is Caco-2 cells. Put plainly: Caco-2 bidirectional permeability assay. It is filed as in vitro ADME, human.
The next data set deals with rat hippocampal cultures. Briefly: Neuroprotection from acute glutamate toxicity, CFDA neuronal viability assay. Format: cell-based. The note with it: initial testing of the core compound; assay not specified.
In a further data set the test system is Rat MES. Put plainly: Maximal electroshock test. It is filed as in vivo. As to conditions: at 30 mg/kg.
Another data set has as its system Mouse MES. Briefly: Maximal electroshock test. Format: in vivo. As to conditions: at 100 mg/kg.
The next data set deals with Mouse 6-Hz test. Put plainly: 6-Hz seizure test, mouse. As to conditions: at 100 mg/kg. Format: in vivo.
Another data set has as its system Mouse scPTZ. Briefly: Subcutaneous pentylenetetrazol. Format: in vivo.

One may read the Papp A→B as how fast a substance crosses the layer from the apical side. In data set [1], `CC(C)NCC(O)COc1cccc2ccccc12` (stereo not shown) [Propranolol control, Propranolol] displayed an apparent permeability from apical to basolateral (Papp A→B) at 5 µM of 17.1 ×10⁻⁶ cm/s. Further, the Permeability classification entry with Caco-2 cells was “High”.

On to `NS(=O)(=O)NCC(O)c1ccccc1F` (stereo not shown) [AND-171, 2-(2-Fluorophenyl)-2-hydroxyethylsulfamide], for which, in the data set on rat hippocampal cultures, the potency for neuroprotection lay within 30 to 100 nM. Moreover, the “Rat MES (oral), animals protected/tested” value in the data set on Rat MES is given as 1/4 at 30 mg/kg. For the same compound, the “Mouse MES (i.p.), animals protected/tested” value with Mouse MES was 1/3 at 100 mg/kg. In the data set with Mouse 6-Hz test, the “Mouse 6-Hz test (i.p.), animals protected/tested” value is 1/4 at 100 mg/kg. Moreover, the “Mouse scPTZ (s.c. EC50)” value with Mouse scPTZ (PTZ 85 mg/kg s.c.) is above 300 mg/kg. Further, in the data set with Mouse scPTZ (at 300 mg/kg i.p.), the “activity in the mouse pentylenetetrazol model” value is reported as “no demonstrated activity”.

The Papp B→A is how fast a substance crosses the layer from the basolateral side. As usually defined, the efflux ratio is the permeability from basolateral to apical divided by that in the opposite direction, in the common usage. For the compound `C[C@H]1O[C@@H](O[C@H]2[C@@H](O)C[C@H](O[C@H]3[C@@H](O)C[C@H](O[C@H]4CC[C@@]5(C)[C@H](CC[C@@H]6[C@@H]5C[C@@H](O)[C@]5(C)[C@@H](C7=CC(=O)OC7)CC[C@]65O)C4)O[C@@H]3C)O[C@@H]2C)C[C@H](O)[C@@H]1O` [Digoxin control, Digoxin], in data set [1], the Papp A→B at 5 µM was determined as 0.62 ×10⁻⁶ cm/s, the Papp B→A at 5 µM was 12.5 ×10⁻⁶ cm/s and the efflux ratio at 5 µM was determined as 20.2. In addition, in the data set on Caco-2 cells, the Permeability classification entry was “Low” and the Significant efflux entry is recorded as “Yes”.

The values above are taken from paper PMC3377984 (Journal of Molecular Neuroscience, 2012).
